# Reference: patent publication US9617244B2, “Antibacterial quinoline derivatives” (JANSSEN PHARMACEUTICA NV, priority 2012, dated 2017)
# System: Staphylococcus aureus (ATCC29213)
# Test: In-vitro anti-bacterial activity, microtitre plate assay, IC90 determination (non-mycobacterial strains)
# Format: cell-based
# Details: 90% inhibitory concentration for bacterial growth, 24 hours, resazurin fluorescence
# Summary of the method: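 Growth inhibition measured fluorometrically with resazurin (530/590 nm) after overnight 37 °C incubation under normal atmosphere. Bacteria added at roughly 100 TCID50 per well in Mueller-Hinton broth to five-fold compound dilution series; IC90 reported in μg/ml.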
row,IC90 STA B29213,SMILES
1,2.14 µg/mL,COc1nc2ccc(SC)cc2cc1C(c1ccc(Cl)cc1)C1(O)CCNC(Cc2ccc(F)cc2)C1 (stereo not drawn) [Compound 302]
2,1.76 µg/mL,COc1nc2ccc(SC)cc2cc1C(c1cccc(Cl)c1)C1(O)CCNC(Cc2ccc(F)cc2F)C1 (stereo not drawn) [Compound 318]
3,3.71 µg/mL,COc1nc2ccc(Br)cc2cc1C(c1ccc(Cl)cc1)C1(O)CCNC(Cc2ccc(F)cc2F)C1 (stereo not drawn) [Compound 320]
4,1.80 µg/mL,COc1nc2ccc(Br)cc2cc1C(c1ccc(Cl)cc1)C1(O)CCNC(Cc2ccc(F)cc2)C1 (stereo not drawn) [Compound 337]
5,1.80 µg/mL,COc1nc2ccc(Br)cc2cc1C(c1ccc(Cl)cc1)C1(O)CCNC(Cc2ccc(F)cc2)C1 (stereo not drawn) [Compound 338]
6,3.60 µg/mL,COc1nc2ccc(Br)cc2cc1C(c1ccc(Cl)cc1)C1(O)CCNC(Cc2ccc(F)cc2)C1 (stereo not drawn) [Compound 339]
7,2.86 µg/mL,COc1nc2ccc(Br)cc2cc1C(c1ccc(Cl)cc1)C1(O)CCNC(Cc2ccc(F)cc2)C1 (stereo not drawn) [Compound 340]
8,1.70 µg/mL,COc1nc2ccc(Cl)cc2cc1C(c1ccc(SC)cc1)C1(O)CCNC(c2ccc(F)cc2C)C1 (stereo not drawn) [Compound 351]
9,1.70 µg/mL,COc1nc2ccc(Cl)cc2cc1C(c1ccc(SC)cc1)C1(O)CCNC(c2ccc(F)cc2C)C1 (stereo not drawn) [Compound 352]
10,3.60 µg/mL,COc1nc2ccc(Br)cc2cc1C(c1ccc(Cl)cc1)C1(O)CCNC(Cc2ccc(F)cc2)C1 (stereo not drawn) [Compound 355]
11,1.80 µg/mL,COc1nc2ccc(Br)cc2cc1C(c1ccc(Cl)cc1)C1(O)CCNC(Cc2ccc(F)cc2)C1 (stereo not drawn) [Compound 356]
12,5.70 µg/mL,COc1nc2ccc(Br)cc2cc1C(c1ccc(Cl)cc1)C1(O)CCNC(Cc2ccc(F)cc2)C1 (stereo not drawn) [Compound 357]
13,3.60 µg/mL,COc1nc2ccc(Br)cc2cc1C(c1ccc(Cl)cc1)C1(O)CCNC(Cc2ccc(F)cc2)C1 (stereo not drawn) [Compound 358]
14,7.16 µg/mL,COc1nc2ccc(Cl)cc2cc1C(c1ccc(S(C)(=O)=O)cc1)C1(O)CCNC(c2ccc(F)cc2C)C1 (stereo not drawn) [Compound 366]
15,7.16 µg/mL,COc1nc2ccc(Cl)cc2cc1C(c1ccc(S(C)(=O)=O)cc1)C1(O)CCNC(c2ccc(F)cc2C)C1 (stereo not drawn) [Compound 367]
16,6.14 µg/mL,C=CC1CC(O)(C(c2ccc(Cl)cc2)c2cc3cc(Br)ccc3nc2OC)CCN1 (stereo not drawn) [Compound 372]
17,3.08 µg/mL,C=CC1CC(O)(C(c2ccc(Cl)cc2)c2cc3cc(Br)ccc3nc2OC)CCN1 (stereo not drawn) [Compound 373]

# Same assay, conditions: Staphylococcus aureus, ATCC29213, 24 h, 90% inhibitory concentration for bacterial growth, resazurin fluorescence, read-out: IC90 STA B29213
row,IC90,SMILES
1,1.8 µg/mL,COc1nc2ccc(Br)cc2cc1C(c1ccc(Cl)cc1)C1(O)CCNCC1Cc1cccc(F)c1 (stereo not drawn) [Compound 226]
2,> 11.8 µg/mL,COc1nc2ccc(CN)cc2cc1[C@@H](c1ccccc1)C1(O)CCNC(Cc2ccccc2)C1 (stereo partly drawn) [Compound 246]
3,3.31 µg/mL,COc1nc2ccc(SC)cc2cc1C(c1ccc(Cl)cc1)C1(O)CCNC(CC2CCCCC2)C1 (stereo not drawn) [Compound 287]
4,7.16 µg/mL,COc1nc2ccc(S(C)(=O)=O)cc2cc1C(c1ccc(Cl)cc1)C1(O)CCNCC1Cc1cccc(F)c1 (stereo not drawn) [Compound 291]
5,3.08 µg/mL,C=CC1CC(O)(C(c2ccc(Cl)cc2)c2cc3cc(Br)ccc3nc2OC)CCN1 (stereo not drawn) [Compound 371]

# System: not given
# Test: not given
# Details: not given
row,melting point,SMILES
1,221 °C,COc1nc2ccc(Br)cc2cc1C(c1ccc(Cl)cc1)C1(O)CCNCC1Cc1cccc(F)c1 (stereo not drawn) [Compound 226]
2,100 °C,COc1nc2ccc(CN)cc2cc1[C@@H](c1ccccc1)C1(O)CCNC(Cc2ccccc2)C1 (stereo partly drawn) [Compound 246]
3,185 °C,COc1nc2ccc(SC)cc2cc1C(c1ccc(Cl)cc1)C1(O)CCNC(CC2CCCCC2)C1 (stereo not drawn) [Compound 287]
4,150 °C,COc1nc2ccc(S(C)(=O)=O)cc2cc1C(c1ccc(Cl)cc1)C1(O)CCNCC1Cc1cccc(F)c1 (stereo not drawn) [Compound 291]
5,120 °C,COc1nc2ccc(SC)cc2cc1C(c1ccc(Cl)cc1)C1(O)CCNC(Cc2ccc(F)cc2)C1 (stereo not drawn) [Compound 302]
6,133 °C,COc1nc2ccc(SC)cc2cc1C(c1cccc(Cl)c1)C1(O)CCNC(Cc2ccc(F)cc2F)C1 (stereo not drawn) [Compound 318]
7,159 °C,COc1nc2ccc(Br)cc2cc1C(c1ccc(Cl)cc1)C1(O)CCNC(Cc2ccc(F)cc2F)C1 (stereo not drawn) [Compound 320]
8,186 °C,COc1nc2ccc(Br)cc2cc1C(c1ccc(Cl)cc1)C1(O)CCNC(Cc2ccc(F)cc2)C1 (stereo not drawn) [Compound 337]
9,198 °C,COc1nc2ccc(Br)cc2cc1C(c1ccc(Cl)cc1)C1(O)CCNC(Cc2ccc(F)cc2)C1 (stereo not drawn) [Compound 338]
10,176 °C,COc1nc2ccc(Br)cc2cc1C(c1ccc(Cl)cc1)C1(O)CCNC(Cc2ccc(F)cc2)C1 (stereo not drawn) [Compound 339]
11,132 °C,COc1nc2ccc(Br)cc2cc1C(c1ccc(Cl)cc1)C1(O)CCNC(Cc2ccc(F)cc2)C1 (stereo not drawn) [Compound 340]
12,128 to 130 °C,COc1nc2ccc(Cl)cc2cc1C(c1ccc(SC)cc1)C1(O)CCNC(c2ccc(F)cc2C)C1 (stereo not drawn) [Compound 351]
13,123 to 125 °C,COc1nc2ccc(Cl)cc2cc1C(c1ccc(SC)cc1)C1(O)CCNC(c2ccc(F)cc2C)C1 (stereo not drawn) [Compound 352]
14,190 °C,COc1nc2ccc(Br)cc2cc1C(c1ccc(Cl)cc1)C1(O)CCNC(Cc2ccc(F)cc2)C1 (stereo not drawn) [Compound 355]
15,98 °C,COc1nc2ccc(Br)cc2cc1C(c1ccc(Cl)cc1)C1(O)CCNC(Cc2ccc(F)cc2)C1 (stereo not drawn) [Compound 356]
16,104 °C,COc1nc2ccc(Br)cc2cc1C(c1ccc(Cl)cc1)C1(O)CCNC(Cc2ccc(F)cc2)C1 (stereo not drawn) [Compound 357]
17,138 °C,COc1nc2ccc(Br)cc2cc1C(c1ccc(Cl)cc1)C1(O)CCNC(Cc2ccc(F)cc2)C1 (stereo not drawn) [Compound 358]
18,146 °C,COc1nc2ccc(Cl)cc2cc1C(c1ccc(S(C)(=O)=O)cc1)C1(O)CCNC(c2ccc(F)cc2C)C1 (stereo not drawn) [Compound 366]
19,175 °C,COc1nc2ccc(Cl)cc2cc1C(c1ccc(S(C)(=O)=O)cc1)C1(O)CCNC(c2ccc(F)cc2C)C1 (stereo not drawn) [Compound 367]
20,158 °C,C=CC1CC(O)(C(c2ccc(Cl)cc2)c2cc3cc(Br)ccc3nc2OC)CCN1 (stereo not drawn) [Compound 371]
21,194 °C,C=CC1CC(O)(C(c2ccc(Cl)cc2)c2cc3cc(Br)ccc3nc2OC)CCN1 (stereo not drawn) [Compound 372]
22,193 °C,C=CC1CC(O)(C(c2ccc(Cl)cc2)c2cc3cc(Br)ccc3nc2OC)CCN1 (stereo not drawn) [Compound 373]

# System: Mycobacterium smegmatis (ATCC607)
# Test: In-vitro anti-bacterial activity against strain M. Smegmatis ATCC607
# Format: cell-based
# Details: 90% inhibitory concentration for bacterial growth, 48 hours, Alamar Blue fluorescence
# Summary of the method: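 IC90 (μg/ml) derived from Alamar Blue fluorescence (530/590 nm) after 48 h growth at 37 °C under 5% CO2. About 250 CFU per well in Mueller-Hinton broth faced five-fold serial compound dilutions in BSA-containing wells.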
row,IC90 MSM 607,SMILES
1,0.90 µg/mL,COc1nc2ccc(Br)cc2cc1C(c1ccc(Cl)cc1)C1(O)CCNCC1Cc1cccc(F)c1 (stereo not drawn) [Compound 226]
2,7.16 µg/mL,COc1nc2ccc(S(C)(=O)=O)cc2cc1C(c1ccc(Cl)cc1)C1(O)CCNCC1Cc1cccc(F)c1 (stereo not drawn) [Compound 291]
3,1.35 µg/mL,COc1nc2ccc(SC)cc2cc1C(c1ccc(Cl)cc1)C1(O)CCNC(Cc2ccc(F)cc2)C1 (stereo not drawn) [Compound 302]
4,1.76 µg/mL,COc1nc2ccc(SC)cc2cc1C(c1cccc(Cl)c1)C1(O)CCNC(Cc2ccc(F)cc2F)C1 (stereo not drawn) [Compound 318]
5,2.95 µg/mL,COc1nc2ccc(Br)cc2cc1C(c1ccc(Cl)cc1)C1(O)CCNC(Cc2ccc(F)cc2F)C1 (stereo not drawn) [Compound 320]
6,0.90 µg/mL,COc1nc2ccc(Br)cc2cc1C(c1ccc(Cl)cc1)C1(O)CCNC(Cc2ccc(F)cc2)C1 (stereo not drawn) [Compound 337]
7,1.43 µg/mL,COc1nc2ccc(Br)cc2cc1C(c1ccc(Cl)cc1)C1(O)CCNC(Cc2ccc(F)cc2)C1 (stereo not drawn) [Compound 338]
8,1.80 µg/mL,COc1nc2ccc(Br)cc2cc1C(c1ccc(Cl)cc1)C1(O)CCNC(Cc2ccc(F)cc2)C1 (stereo not drawn) [Compound 339]
9,1.43 µg/mL,COc1nc2ccc(Br)cc2cc1C(c1ccc(Cl)cc1)C1(O)CCNC(Cc2ccc(F)cc2)C1 (stereo not drawn) [Compound 340]
10,1.35 µg/mL,COc1nc2ccc(Cl)cc2cc1C(c1ccc(SC)cc1)C1(O)CCNC(c2ccc(F)cc2C)C1 (stereo not drawn) [Compound 351]
11,0.85 µg/mL,COc1nc2ccc(Cl)cc2cc1C(c1ccc(SC)cc1)C1(O)CCNC(c2ccc(F)cc2C)C1 (stereo not drawn) [Compound 352]
12,1.43 µg/mL,COc1nc2ccc(Br)cc2cc1C(c1ccc(Cl)cc1)C1(O)CCNC(Cc2ccc(F)cc2)C1 (stereo not drawn) [Compound 355]
13,1.80 µg/mL,COc1nc2ccc(Br)cc2cc1C(c1ccc(Cl)cc1)C1(O)CCNC(Cc2ccc(F)cc2)C1 (stereo not drawn) [Compound 356]
14,3.60 µg/mL,COc1nc2ccc(Br)cc2cc1C(c1ccc(Cl)cc1)C1(O)CCNC(Cc2ccc(F)cc2)C1 (stereo not drawn) [Compound 357]
15,1.43 µg/mL,COc1nc2ccc(Br)cc2cc1C(c1ccc(Cl)cc1)C1(O)CCNC(Cc2ccc(F)cc2)C1 (stereo not drawn) [Compound 358]
16,3.59 µg/mL,COc1nc2ccc(Cl)cc2cc1C(c1ccc(S(C)(=O)=O)cc1)C1(O)CCNC(c2ccc(F)cc2C)C1 (stereo not drawn) [Compound 366]
17,5.69 µg/mL,COc1nc2ccc(Cl)cc2cc1C(c1ccc(S(C)(=O)=O)cc1)C1(O)CCNC(c2ccc(F)cc2C)C1 (stereo not drawn) [Compound 367]
18,2.44 µg/mL,C=CC1CC(O)(C(c2ccc(Cl)cc2)c2cc3cc(Br)ccc3nc2OC)CCN1 (stereo not drawn) [Compound 371]
19,3.08 µg/mL,C=CC1CC(O)(C(c2ccc(Cl)cc2)c2cc3cc(Br)ccc3nc2OC)CCN1 (stereo not drawn) [Compound 372]
20,3.08 µg/mL,C=CC1CC(O)(C(c2ccc(Cl)cc2)c2cc3cc(Br)ccc3nc2OC)CCN1 (stereo not drawn) [Compound 373]

# Same assay, conditions: Mycolicibacterium smegmatis, ATCC607, 48 h, 90% inhibitory concentration for bacterial growth, Alamar Blue fluorescence, read-out: IC90 MSM 607
row,IC90,SMILES
1,> 11.8 µg/mL,COc1nc2ccc(CN)cc2cc1[C@@H](c1ccccc1)C1(O)CCNC(Cc2ccccc2)C1 (stereo partly drawn) [Compound 246]
2,2.63 µg/mL,COc1nc2ccc(SC)cc2cc1C(c1ccc(Cl)cc1)C1(O)CCNC(CC2CCCCC2)C1 (stereo not drawn) [Compound 287]
